Assay results taken from US6117840A, “CS-1 peptidomimetics, compositions and methods of using the same” (Cytel Corporation, priority 1997, dated 2000).
Square brackets hold non-standard residues; d marks the D form. Peptide text beside a SMILES is read from it. * marks the point of attachment. Cha = N[C@@H](CC1CCCCC1)C(=O)O; NHPhenethyl = c1ccc(CCN*)cc1; Phg = N[C@H](C(=O)O)c1ccccc1; Morpholide = C1CN(*)CCO1; Nle = CCCC[C@H](N)C(=O)O; Piperidide = C1CCN(*)CC1; PhAc = O=C(Cc1ccccc1)*; Inp = O=C(O)C1CCNCC1; NHBn = c1ccc(CN*)cc1; Bz = O=C(c1ccccc1)*; NHBu = CCCCN*

molecular target: T1, VLA-4 (Homo sapiens, UniProt P05556+P13612); assay type: cell-based; conditions: relative to standard peptide SEQ ID NO:3 (=1), normalized IC50; about one-tenth or less of SEQ ID NO:3 assigned zero
T1 construct: host or cells: Jurkat (human T lymphoblastic line)
Description: Binding inhibition is measured here as a concentration of peptide that inhibits one-half the binding between a standard number of Jurkat cells and a standard amount of CS-1 peptide bound to the surface of a microtiter plate well. Those concentrations are conveniently expressed as IC50 values, smaller numbers indicating a lower concentration required to inhibit 50 percent binding and therefore greater potency. Further specifics of this assay are provided hereinafter.
Jurkat cells (ATCC TIB 152), a human T lymphoblastic line, labeled with ^51 chromium were used to assay in vitro binding inhibition provided by various peptides discussed herein.
The plates were prepared as follows: The 25-mer CS1 peptide (SEQ ID NO:1) dissolved at 0.5-1 μg/ml in a buffer of 0.1M NaHCO3 at pH 9.5 tha also contained 10 μg/ml of bovine serum albumin (BSA) or a conjugate o the CS1 peptide linked to ovalbumin (CS1-OVA) dissolved at 1-2.5 μg/ml in the same buffer was used as the substrate. Each well of the microtiter plates was coated with 50 μl of substrate or buffer alone for controls The wells were permitted to dry out completely and were then rinsed twice with PBS at pH 7.4. Nonspecific binding sites of each well were then blocked using 200 μl per well of RPMI/1 percent BSA for two hours at room temperature. Both solid phaseaffixed substrates provided similar results.
Jurkat cells (3-5×10^6 cells) were placed into a 15 ml Falcon.TM roundbottom tube with a cap. The tube was centrifuged, and the extra medium was then removed.
Two hundred microliters of a ^51 Cr labeling solution were added to th centrifuged cells and maintained in contact with the cells for 90-120 minutes in a warm room. This procedure typically provides about 50,000-100,000 cpm/well with about 80-100 percent cell viability. Longer contact times provide a greater amount of labeling but lower cell viability.
The labeled cells are washed with (i) complete medium, (ii) 1 mM EDTA/PBS and then (iii) RPMI/1 percent BSA free of serum components. The cells are centrifuged after each washing. The cells are finally resuspended in serumfree RPMI/1 percent BSA at a concentration of 1×10^6 viabl cells/ml, which provides a concentration that is diluted by onehalf in th assay.
Inhibitor peptides are prepared as stock solutions at 20 mg/ml in DMSO in 1.5 ml cryogenic screwcap vials, and were stored at -70° C. Using Flow™ roundbottom or Vbottom microtiter plates, the inhibitor peptides were prepared at twice the assay concentration in RPMI/1 percent BSA at 6 μl/well.
Four initial dilutions were typically used.
The ^51 Crlabeled cells (1×10^6 cells at 60 μl/well) were then admixed with the diluted peptide solutions. The admixtures were maintained at room temperature (about 22° C.) for 30 minutes.
One hundred microliters of each inhibitor peptide/cell admixture were transferred to the substratecoated wells. This was done in triplicate for each dilution. The resulting plates were incubated for 30 minutes at 37° C. and then washed gently three times with RPMI/1 percent BSA at 200 μl/well. Binding was observed microscopically, particularly after the second wash.
The bound cells were then lysed by the addition of a 0.5 percent solution of sodium dodecylsulfate in water at 100 μl/well. The resulting solutions were then processed for counting and calculation of IC50 values following usual procedures. Appropriate positive and negative controls were used with each plate so that the results of separate assays could be normalized and compared.

T1 sequence (P13612 34-1032): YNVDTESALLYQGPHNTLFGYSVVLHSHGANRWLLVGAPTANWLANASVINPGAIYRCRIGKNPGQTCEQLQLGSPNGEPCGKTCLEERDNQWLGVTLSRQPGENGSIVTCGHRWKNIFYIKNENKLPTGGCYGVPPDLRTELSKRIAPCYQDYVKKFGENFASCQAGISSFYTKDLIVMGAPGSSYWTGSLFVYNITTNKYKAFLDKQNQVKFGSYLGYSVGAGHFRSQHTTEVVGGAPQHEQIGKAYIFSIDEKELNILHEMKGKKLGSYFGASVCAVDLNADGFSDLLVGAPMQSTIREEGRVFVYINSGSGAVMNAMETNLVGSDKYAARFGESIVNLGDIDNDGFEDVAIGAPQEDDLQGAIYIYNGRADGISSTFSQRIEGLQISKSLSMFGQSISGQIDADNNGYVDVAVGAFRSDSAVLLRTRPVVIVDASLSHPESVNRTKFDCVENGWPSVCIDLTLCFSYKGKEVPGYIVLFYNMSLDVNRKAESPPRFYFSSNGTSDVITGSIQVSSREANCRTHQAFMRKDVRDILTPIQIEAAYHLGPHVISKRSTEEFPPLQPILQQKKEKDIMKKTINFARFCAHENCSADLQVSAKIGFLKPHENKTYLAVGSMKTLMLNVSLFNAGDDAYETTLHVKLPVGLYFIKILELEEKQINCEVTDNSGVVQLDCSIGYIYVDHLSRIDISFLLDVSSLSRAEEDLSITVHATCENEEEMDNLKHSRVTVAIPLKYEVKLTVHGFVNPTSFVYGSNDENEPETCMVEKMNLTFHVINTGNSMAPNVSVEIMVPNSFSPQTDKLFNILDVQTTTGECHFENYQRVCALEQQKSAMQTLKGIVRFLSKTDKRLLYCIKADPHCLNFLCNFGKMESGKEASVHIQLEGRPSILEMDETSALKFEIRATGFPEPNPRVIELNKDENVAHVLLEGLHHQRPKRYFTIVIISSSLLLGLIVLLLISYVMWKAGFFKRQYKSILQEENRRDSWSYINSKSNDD
T1 sequence (P05556 21-798): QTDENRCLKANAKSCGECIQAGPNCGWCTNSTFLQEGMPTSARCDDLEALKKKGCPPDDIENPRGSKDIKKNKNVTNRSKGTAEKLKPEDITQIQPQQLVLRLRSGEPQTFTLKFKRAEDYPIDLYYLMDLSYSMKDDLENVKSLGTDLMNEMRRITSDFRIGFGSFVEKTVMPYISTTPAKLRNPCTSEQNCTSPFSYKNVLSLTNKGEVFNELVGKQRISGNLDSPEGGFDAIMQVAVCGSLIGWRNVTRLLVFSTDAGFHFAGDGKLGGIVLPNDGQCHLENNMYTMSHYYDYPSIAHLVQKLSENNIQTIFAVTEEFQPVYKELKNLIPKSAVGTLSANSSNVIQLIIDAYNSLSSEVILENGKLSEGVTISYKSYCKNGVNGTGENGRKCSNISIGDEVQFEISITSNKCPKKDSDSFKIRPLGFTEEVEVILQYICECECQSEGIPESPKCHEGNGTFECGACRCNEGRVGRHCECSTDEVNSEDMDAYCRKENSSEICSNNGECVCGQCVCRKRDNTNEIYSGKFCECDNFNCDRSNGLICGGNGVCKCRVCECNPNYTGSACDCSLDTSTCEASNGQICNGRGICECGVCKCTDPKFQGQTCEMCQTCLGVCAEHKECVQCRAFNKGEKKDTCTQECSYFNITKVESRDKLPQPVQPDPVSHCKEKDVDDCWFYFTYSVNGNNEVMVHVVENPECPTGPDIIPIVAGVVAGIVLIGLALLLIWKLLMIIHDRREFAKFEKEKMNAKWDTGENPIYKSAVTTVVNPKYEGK

Compound	RELATIVE POTENCY (inhibition of VLA-4 binding CS-1)
CC(C)C[C@H](NC(=O)Cc1ccccc1)C(=O)N[C@@H](CC(=O)O)C(=O)N[C@@H](Cc1ccccc1)C(=O)N1CCSCC1	493
CC(C)C[C@H](NC(=O)Cc1ccccc1)C(=O)N[C@@H](CC(=O)O)C(=O)NC1Cc2ccccc2NC1=O (stereo partly shown)	31
CC(C)C[C@H](NC(=O)Cc1ccccc1)C(=O)N[C@@H](CC(=O)O)C(=O)NN(Cc1ccccc1)Cc1ccccc1	0
CC(C)C[C@H](NC(=O)Cc1ccccc1)C(=O)N[C@@H](CC(=O)O)C(=O)N[C@@H](Cc1ccccc1)C(=O)N1CCN(CCOCCO)CC1	505
CC(C)C[C@H](NC(=O)Cc1ccccc1)C(=O)N[C@@H](CC(=O)O)C(=O)NCCc1ccccc1 [X L D Z phenylacetyl phenethylamide] (PhAc-Leu-Asp-NHPhenethyl)	19
CC(C)C[C@H](NC(=O)Cc1ccccc1)C(=O)N[C@@H](CC(=O)O)C(=O)N[C@@H](Cc1c[nH]c2ccccc12)C(=O)N1CCC[C@@H]1C(N)=O [X L D W p phenylacetyl amide] (PhAc-LDW[dP]-NH2)	184
CC(C)C[C@H](NC(=O)Cc1ccccc1)C(=O)N[C@@H](CC(=O)O)C(=O)N[C@@H](Cc1ccccc1)C(=O)N1CCCCC1 [X L D F Z phenylacetyl piperidinamide, N--phenylacetyl--Leu--Asp--Phe--piperidinamide] (PhAc-Leu-Asp-Phe-Piperidide)	231
CC(C)C[C@H](NC(=O)Cc1ccccc1)C(=O)N[C@@H](CC(=O)O)C(=O)NC1Cc2ccccc2N(CC(C)C)C1=O (stereo partly shown)	6
CC(C)C[C@H](NC(=O)Cc1ccccc1)C(=O)N[C@@H](CC(=O)O)C(=O)NC1Cc2ccccc2N(CC(N)=O)C1=O (stereo partly shown)	45
CC(C)C[C@H](NC(=O)Cc1ccccc1)C(=O)N[C@@H](CC(=O)O)C(=O)NC1CCN(C2CCCCC2)C1=O (stereo partly shown)	7
CC(C)C[C@H](NC(=O)Cc1ccccc1)C(=O)N[C@@H](CC(=O)O)C(=O)NC1CCCCN(CC(N)=O)C1=O (stereo partly shown)	97
CC(C)C[C@H](NC(=O)Cc1ccccc1)C(=O)N[C@@H](CC(=O)O)C(=O)NNC(=O)OC(C)(C)C [X L D Z phenylacetyl N'-t-Boc-hydrazide]	2
CC(C)C[C@H](NC(=O)Cc1ccccc1)C(=O)N[C@@H](CC(=O)O)C(=O)N[C@@H](Cc1ccccc1)C(=O)N1CCNCC1 [X L D F Z phenylacetyl piperazinamide]	506
CC(C)C[C@H](NC(=O)Cc1ccccc1)C(=O)N[C@@H](CC(=O)O)C(=O)N[C@H](C(=O)N1CCC[C@@H]1C(N)=O)c1ccccc1 (PhAc-LD[Phg][dP]-NH2)	61
CC(C)C[C@H](NC(=O)Cc1ccccc1)C(=O)N[C@@H](CC(=O)O)C(=O)NN(Cc1ccccc1)C(=O)C1CCCC1	1
CC(C)C[C@H](NC(=O)Cc1ccccc1)C(=O)N[C@@H](CC(=O)O)C(=O)N[C@@H](Cc1ccccc1)C(N)=O [X L D F phenylacetyl amide] (PhAc-Leu-Asp-Phe-NH2)	< 1
CC(C)C[C@H](NC(=O)Cc1ccccc1)C(=O)N[C@@H](CC(=O)O)C(=O)N[C@@H](Cc1ccccc1)C(=O)N1CCCC1CO (stereo partly shown)	184
CC(C)C[C@H](NC(=O)Cc1ccccc1)C(=O)N[C@@H](CC(=O)O)C(=O)N[C@@H](Cc1ccccc1)C(=O)N1CCS(=O)(=O)CC1	1060

Compound	RELATIVE POTENCY (inhibition of VLA-4 binding CS-1)
CC(C)C[C@H](NC(=O)Cc1ccccc1)C(=O)N[C@@H](CC(=O)O)C(=O)NCC(=O)N1CCOCC1 [X L D G Z phenylacetyl morpholinamide] (PhAc-Leu-Asp-Gly-Morpholide)	9
CC(C)C[C@H](NC(=O)Cc1ccccc1)C(=O)N[C@@H](CC(=O)O)C(=O)NCCN1CCOCC1	13
CC(C)C[C@H](NC(=O)Cc1ccccc1)C(=O)N[C@@H](CC(=O)O)C(=O)N[C@@H](Cc1ccccc1)C(=O)N1CCC(O)CC1	603
CCCCNC(=O)[C@H](Cc1ccccc1)NC(=O)[C@H](CC(=O)O)NC(=O)[C@H](CC(C)C)NC(=O)Cc1ccccc1 [X L D F Z phenylacetyl n-butylamide] (PhAc-Leu-Asp-Phe-NHBu)	3
CC(C)C[C@H](NC(=O)Cc1ccccc1)C(=O)N[C@@H](CC(=O)O)C(=O)NC(c1ccccc1)c1ccccc1 [X L D Z phenylacetyl benzylhydrylamide]	3
CC(C)C[C@H](NC(=O)Cc1ccccc1)C(=O)N[C@@H](CC(=O)O)C(=O)NC1Cc2ccccc2N(CCN2CCOCC2)C1=O (stereo partly shown)	20
CC(C)C[C@H](NC(=O)Cc1ccccc1)C(=O)N[C@@H](CC(=O)O)C(=O)N[C@@H]1CCCCNC1=O	17
CC(C)C[C@H](NC(=O)Cc1ccccc1)C(=O)N[C@@H](CC(=O)O)C(=O)NC(Cc1ccccc1)Cc1ccccc1	0
CC(C)C[C@H](NC(=O)Cc1ccccc1)C(=O)N[C@@H](CC(=O)O)C(=O)NCc1ccccc1 [X L D Z phenylacetyl benzylamide] (PhAc-Leu-Asp-NHBn)	19
CC(C)C[C@H](NC(=O)Cc1ccccc1)C(=O)N[C@@H](CC(=O)O)C(=O)N[C@@H](Cc1ccccc1)C(=O)N1CC[N+](C)(C)CC1	313
CC(C)C[C@H](NC(=O)Cc1ccccc1)C(=O)N[C@@H](CC(=O)O)C(=O)N[C@@H](Cc1ccccc1)C(=O)N1CCC(C(=O)O)CC1 (PhAc-LDF[Inp]-OH)	828
CC(C)C[C@H](NC(=O)Cc1ccccc1)C(=O)N[C@@H](CC(=O)O)C(=O)N[C@@H](Cc1ccccc1)C(=O)N1CCC(C(N)=O)CC1 (PhAc-LDF[Inp]-NH2)	933
NC(=O)[C@H]1CCCN1C(=O)[C@H](Cc1ccccc1)NC(=O)[C@H](CC(=O)O)NC(=O)[C@H](CC1CCCCC1)NC(=O)c1ccccc1 (Bz-[Cha]DF[dP]-NH2)	17
CC(C)C[C@H](NC(=O)Cc1ccccc1)C(=O)N[C@@H](CC(=O)O)C(=O)N[C@@H](Cc1ccc(O)cc1)C(=O)N1CCOCC1 [X L D Y Z phenylacetyl morpholinamide, N--phenylacetyl--Leu--Asp--Tyr--morpholinamide] (PhAc-Leu-Asp-Tyr-Morpholide)	313
CC(C)C[C@H](NC(=O)Cc1ccccc1)C(=O)N[C@@H](CC(=O)O)C(=O)N[C@@H](Cc1ccccc1)C(=O)N1CCN(CC(N)=O)CC1	319
CC(C)C[C@H](NC(=O)c1ccccc1)C(=O)N[C@@H](CC(=O)O)C(=O)N[C@@H](Cc1ccccc1)C(=O)N1CCC[C@@H]1C(N)=O [X L D F p benzoyl amide] (Bz-LDF[dP]-NH2)	75
CC(C)C[C@H](NC(=O)Cc1ccccc1)C(=O)N[C@@H](CC(=O)O)C(=O)NC1CCCCNC1=O (stereo partly shown)	27
CCCC[C@H](NC(=O)Cc1ccccc1)C(=O)N[C@@H](CC(=O)O)C(=O)N[C@@H](Cc1ccccc1)C(=O)N1CCC[C@@H]1C(N)=O [X K D F p phenylacetyl amide J = Nle] (PhAc-[Nle]DF[dP]-NH2)	49

same assay, conditions: relative to standard peptide SEQ ID NO:3 (=1), normalized IC50; about one-tenth or less of SEQ ID NO:3 assigned zero; listed as Leu--Asp--Val (LDV) Nfre amine Camide

RELATIVE POTENCY (inhibition of VLA-4 binding CS-1)	Compound
zero	CC(C)C[C@H](N)C(=O)N[C@@H](CC(=O)O)C(=O)N[C@H](C(N)=O)C(C)C [L D V free amine amide, reference compound] (H-Leu-Asp-Val-NH2)
